In PMC6210068 (ACS Omega, 2018):

Key:
KOR [1] = molecular target: T1, KOR (Homo sapiens, UniProt P41145); assay: biochemical; assay type: binding; details: for Ki: KOR, [3H]U69593, mean ± SEM, N = 2–4
muscarinic M1 receptor = muscarinic M1 receptor (Homo sapiens, UniProt P11229); assay: PDSP off-target binding, muscarinic M1
5HT2B serotonin receptor = 5HT2B serotonin receptor (Homo sapiens, UniProt P41595); assay: PDSP off-target binding, 5HT2B
rat kidney TSPO = rat kidney TSPO (Rattus norvegicus, UniProt P16257); assay: Radioligand binding at TSPO; details: for Ki: TSPO, rat TSPO, [3H]PK11195
hA3AR [2] = molecular target: T2, hA3AR (Homo sapiens, UniProt P0DMS8); assay: A3AR binding; details: for reduction of hA3AR binding affinity by 7-deaza modification: 28 vs 24, 54 vs 49, 55 vs 51
T2 sequence (P0DMS8 1-318): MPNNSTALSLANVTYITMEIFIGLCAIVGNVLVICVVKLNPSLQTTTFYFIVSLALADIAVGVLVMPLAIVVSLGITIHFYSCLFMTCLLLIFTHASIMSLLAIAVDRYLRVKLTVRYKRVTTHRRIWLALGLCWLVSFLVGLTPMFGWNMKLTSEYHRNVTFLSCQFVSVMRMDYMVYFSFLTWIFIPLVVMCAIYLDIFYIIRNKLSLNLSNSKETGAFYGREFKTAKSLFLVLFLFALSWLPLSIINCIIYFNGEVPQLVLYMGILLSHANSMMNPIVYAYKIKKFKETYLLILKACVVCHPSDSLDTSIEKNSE

DOR [3] = molecular target: T3, DOR (Homo sapiens, UniProt P41143); assay: Radioligand binding at DOR
MOR [4] = molecular target: T4, MOR (Homo sapiens, UniProt P35372); assay: biochemical; assay type: binding
hA1AR = molecular target: T5, hA1AR (Homo sapiens, UniProt P30542); assay: hA1AR binding
T5 sequence (P30542 1-326): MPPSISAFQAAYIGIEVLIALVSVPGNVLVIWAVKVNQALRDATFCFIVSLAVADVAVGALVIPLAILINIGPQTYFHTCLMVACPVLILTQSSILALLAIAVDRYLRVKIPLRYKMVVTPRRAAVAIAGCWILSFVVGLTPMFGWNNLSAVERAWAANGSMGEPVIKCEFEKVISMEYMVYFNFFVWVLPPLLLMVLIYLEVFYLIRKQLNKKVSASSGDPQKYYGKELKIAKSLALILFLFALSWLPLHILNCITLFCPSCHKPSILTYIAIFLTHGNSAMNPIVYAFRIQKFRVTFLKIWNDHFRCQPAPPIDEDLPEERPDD

hA3AR [5] = molecular target: T2, hA3AR; assay: hA3AR-mediated inhibition of cAMP formation; assay type: cell-based; details: read-out: maximal efficacy, hA3AR-mediated inhibition of cAMP formation
KOR [6] = molecular target: T1, KOR; assay: β-arrestin-recruitment TANGO assay at KOR; assay type: cell-based; details: 10 μM; vs naloxone 121 = 100% inhibition; agonist 109 (3 nM)
[7] = Pharmacokinetics after intravenous and oral administration; assay type: in vivo, male Sprague Dawley rats
DOR [8] = molecular target: T3, DOR; assay: β-arrestin-recruitment TANGO assay at DOR; assay type: cell-based; details: 10 μM
CYP1A2 = CYP1A2 (Homo sapiens, UniProt P05177); assay: Cytochrome P450 inhibition in human microsomes, 1A2; assay type: in vitro ADME; details: CYP450 1A2 IC50, human microsomes
hDAT [9] = molecular target: T6, hDAT (Homo sapiens, UniProt Q01959); assay: hDAT binding modulation, [3H]mazindol 119
CYP2C9 = CYP2C9 (Homo sapiens, UniProt P11712); assay: Cytochrome P450 inhibition in human microsomes, 2C9; assay type: in vitro ADME; details: CYP450 2C9 IC50, human microsomes
CACO-2 cell permeability = assay type: in vitro ADME; details: human, Caco-2, pH 7.4
CACO-2 cells = assay: CACO-2 cell permeability; assay type: in vitro ADME; details: human, Caco-2, 120 min, 10 µM, pH 7.4
hNET [10] = molecular target: T7, hNET (Homo sapiens, UniProt P23975); assay: hNET binding, [125I]118
hERG = hERG (Homo sapiens, UniProt Q12809); assay: hERG inhibition, fluorescence polarization assay; assay type: binding
hSERT = hSERT (Homo sapiens, UniProt P31645); assay: hSERT binding and serotonin uptake
hDAT [11] = molecular target: T6, hDAT; assay: [3H]dopamine uptake inhibition at hDAT; assay type: cell-based
mA2AAR = mA2AAR (Mus musculus, UniProt Q60613); assay: mA2AAR binding; details: read-out: mA2AAR binding, % inhibition at 10 μM
hNOP = hNOP (Homo sapiens, UniProt P41146); assay: Radioligand binding at NOP
Human plasma stability = assay type: in vitro ADME; details: after 2 h
CYP2C19 = CYP2C19 (Homo sapiens, UniProt P33261); assay: Cytochrome P450 inhibition in human microsomes, 2C19; assay type: in vitro ADME; details: CYP450 2C19 IC50, human microsomes
KOR [12] = molecular target: T1, KOR; assay type: cell-based; details: antagonism of 1 μM U69593 98
CYP2D6 = CYP2D6 (Homo sapiens, UniProt P10635); assay: Cytochrome P450 inhibition in human microsomes, 2D6; assay type: in vitro ADME; details: CYP450 2D6 IC50, human microsomes
mA1AR = molecular target: T8, mA1AR (Mus musculus, UniProt Q60612); assay: mA1AR binding; details: read-out: mA1AR binding, % inhibition at 10 μM
T8 sequence (Q60612 1-326): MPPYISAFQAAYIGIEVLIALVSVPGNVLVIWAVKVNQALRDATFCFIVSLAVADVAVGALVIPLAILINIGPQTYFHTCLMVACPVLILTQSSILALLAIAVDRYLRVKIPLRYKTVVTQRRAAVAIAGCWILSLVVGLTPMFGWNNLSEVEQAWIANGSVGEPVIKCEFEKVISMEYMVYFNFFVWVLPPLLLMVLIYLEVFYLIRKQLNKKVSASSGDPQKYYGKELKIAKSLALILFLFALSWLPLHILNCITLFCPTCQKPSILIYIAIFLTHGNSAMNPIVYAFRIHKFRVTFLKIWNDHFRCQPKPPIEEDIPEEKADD

hDAT [13] = molecular target: T6, hDAT; assay: Radioligand binding at DAT; details: for DAT, inhibition, % of control at 10 μM: [3H]WIN35428, negative = enhanced radioligand binding
CYP3A4 = CYP3A4 (Homo sapiens, UniProt P08684); assay: Cytochrome P450 inhibition in human microsomes, 3A4; assay type: in vitro ADME; details: CYP450 3A4 IC50, human microsomes
MOR [14] = molecular target: T4, MOR; assay: β-arrestin-recruitment TANGO assay at MOR; assay type: cell-based; details: 10 μM
hNET [15] = molecular target: T7, hNET; details: read-out: Ki, inhibition of binding of [3H]104 at NET; cited from earlier work
[16] = molecular target: human 5HT1A serotonin receptor (Homo sapiens, UniProt P08908); assay: PDSP off-target binding, 5HT1A
hDAT [17] = molecular target: T6, hDAT; details: read-out: Ki, inhibition of binding of [3H]103 at hDAT; cited from earlier work
β3 adrenergic receptor = β3 adrenergic receptor (Homo sapiens, UniProt P13945); assay: PDSP off-target binding, β3 adrenergic
rat σ2 receptor = molecular target: T9, rat σ2 receptor (Rattus norvegicus, UniProt Q5U3Y7); assay: PDSP binding, σ2 receptor
T9 sequence (Q5U3Y7 1-176): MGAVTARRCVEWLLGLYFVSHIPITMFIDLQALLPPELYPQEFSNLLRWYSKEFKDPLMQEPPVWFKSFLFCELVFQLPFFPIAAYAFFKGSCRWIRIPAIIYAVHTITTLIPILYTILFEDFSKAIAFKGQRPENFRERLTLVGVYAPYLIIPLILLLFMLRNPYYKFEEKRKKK

[18] = male, Sprague-Dawley, rat, plasma, po

T6 sequence (Q01959 whole entry): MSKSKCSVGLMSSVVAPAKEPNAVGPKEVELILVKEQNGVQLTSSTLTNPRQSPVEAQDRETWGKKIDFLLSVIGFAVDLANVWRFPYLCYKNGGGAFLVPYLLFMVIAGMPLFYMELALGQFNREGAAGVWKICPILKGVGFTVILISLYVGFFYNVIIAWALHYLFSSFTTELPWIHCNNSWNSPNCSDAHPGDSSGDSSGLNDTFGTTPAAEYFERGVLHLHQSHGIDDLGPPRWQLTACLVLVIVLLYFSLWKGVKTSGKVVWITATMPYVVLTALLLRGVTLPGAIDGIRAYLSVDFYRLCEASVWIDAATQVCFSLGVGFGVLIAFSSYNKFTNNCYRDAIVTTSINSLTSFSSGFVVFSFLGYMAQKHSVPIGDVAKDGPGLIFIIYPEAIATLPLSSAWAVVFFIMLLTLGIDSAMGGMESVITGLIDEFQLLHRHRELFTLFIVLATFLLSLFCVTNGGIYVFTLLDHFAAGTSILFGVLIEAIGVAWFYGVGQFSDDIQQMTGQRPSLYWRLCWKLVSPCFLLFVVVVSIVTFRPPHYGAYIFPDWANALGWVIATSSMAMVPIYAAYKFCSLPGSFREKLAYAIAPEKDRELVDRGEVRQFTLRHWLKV
T1 sequence (P41145 whole entry): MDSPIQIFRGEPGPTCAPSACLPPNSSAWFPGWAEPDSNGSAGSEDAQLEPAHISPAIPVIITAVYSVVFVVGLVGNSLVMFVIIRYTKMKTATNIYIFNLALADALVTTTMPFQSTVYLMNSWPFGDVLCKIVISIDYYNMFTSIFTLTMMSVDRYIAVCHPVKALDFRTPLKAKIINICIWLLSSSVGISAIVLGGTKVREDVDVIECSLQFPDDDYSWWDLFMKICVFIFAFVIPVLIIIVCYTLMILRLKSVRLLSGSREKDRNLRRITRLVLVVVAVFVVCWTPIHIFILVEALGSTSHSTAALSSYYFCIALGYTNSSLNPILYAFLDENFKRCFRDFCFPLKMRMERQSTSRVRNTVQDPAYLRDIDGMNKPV
T3 sequence (P41143 whole entry): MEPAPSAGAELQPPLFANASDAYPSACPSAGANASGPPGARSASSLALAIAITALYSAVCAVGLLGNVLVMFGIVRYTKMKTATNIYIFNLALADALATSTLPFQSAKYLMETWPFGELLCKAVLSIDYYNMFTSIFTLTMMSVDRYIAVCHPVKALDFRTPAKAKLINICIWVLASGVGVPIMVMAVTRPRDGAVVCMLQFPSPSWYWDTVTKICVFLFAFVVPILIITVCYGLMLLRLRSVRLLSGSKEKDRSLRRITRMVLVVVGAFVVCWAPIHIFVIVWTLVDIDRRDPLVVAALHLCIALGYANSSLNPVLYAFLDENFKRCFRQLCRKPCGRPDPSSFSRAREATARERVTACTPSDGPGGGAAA
T4 sequence (P35372 whole entry): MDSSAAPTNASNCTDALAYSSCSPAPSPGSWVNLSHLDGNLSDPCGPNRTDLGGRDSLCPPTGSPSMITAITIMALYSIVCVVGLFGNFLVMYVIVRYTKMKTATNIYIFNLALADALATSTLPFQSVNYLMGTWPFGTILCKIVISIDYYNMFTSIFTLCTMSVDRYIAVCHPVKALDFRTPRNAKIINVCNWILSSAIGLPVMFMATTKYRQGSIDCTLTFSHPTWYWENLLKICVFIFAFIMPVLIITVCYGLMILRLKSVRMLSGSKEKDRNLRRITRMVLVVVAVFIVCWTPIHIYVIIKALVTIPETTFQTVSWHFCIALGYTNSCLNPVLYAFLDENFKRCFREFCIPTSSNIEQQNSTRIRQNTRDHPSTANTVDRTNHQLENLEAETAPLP
Chain of rat kidney TSPO (P16257 whole entry): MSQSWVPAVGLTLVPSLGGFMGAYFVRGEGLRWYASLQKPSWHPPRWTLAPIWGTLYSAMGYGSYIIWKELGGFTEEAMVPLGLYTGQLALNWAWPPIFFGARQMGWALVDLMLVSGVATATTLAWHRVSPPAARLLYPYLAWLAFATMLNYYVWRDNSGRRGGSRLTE
T7 sequence (P23975 whole entry): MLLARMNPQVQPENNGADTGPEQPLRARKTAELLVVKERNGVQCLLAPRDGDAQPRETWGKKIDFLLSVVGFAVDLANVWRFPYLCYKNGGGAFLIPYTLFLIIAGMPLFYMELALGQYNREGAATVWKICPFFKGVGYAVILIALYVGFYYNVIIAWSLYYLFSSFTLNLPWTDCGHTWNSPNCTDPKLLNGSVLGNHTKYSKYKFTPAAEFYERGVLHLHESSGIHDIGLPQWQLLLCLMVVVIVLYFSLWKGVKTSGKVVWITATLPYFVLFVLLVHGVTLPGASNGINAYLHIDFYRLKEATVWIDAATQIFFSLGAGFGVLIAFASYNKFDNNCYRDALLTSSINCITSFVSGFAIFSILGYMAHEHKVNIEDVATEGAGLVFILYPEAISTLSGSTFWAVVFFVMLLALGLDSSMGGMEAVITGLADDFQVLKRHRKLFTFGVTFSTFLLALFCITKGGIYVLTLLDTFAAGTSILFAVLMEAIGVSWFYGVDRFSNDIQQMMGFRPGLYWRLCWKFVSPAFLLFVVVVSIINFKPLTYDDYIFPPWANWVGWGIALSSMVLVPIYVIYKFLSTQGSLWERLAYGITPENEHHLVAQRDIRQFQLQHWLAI
Chain of β3 adrenergic receptor (P13945 whole entry): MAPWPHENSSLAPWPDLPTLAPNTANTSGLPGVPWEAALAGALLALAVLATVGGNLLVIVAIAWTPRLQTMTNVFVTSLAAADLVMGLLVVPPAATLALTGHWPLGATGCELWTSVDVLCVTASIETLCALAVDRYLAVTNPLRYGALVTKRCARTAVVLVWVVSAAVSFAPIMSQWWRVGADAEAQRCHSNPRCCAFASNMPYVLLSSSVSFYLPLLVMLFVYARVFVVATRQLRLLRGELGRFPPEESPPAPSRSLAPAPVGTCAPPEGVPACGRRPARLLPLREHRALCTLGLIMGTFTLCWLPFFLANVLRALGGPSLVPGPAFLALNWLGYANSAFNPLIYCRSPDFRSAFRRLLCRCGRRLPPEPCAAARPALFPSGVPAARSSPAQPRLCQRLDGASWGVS
Chain of CYP2C9 (P11712 whole entry): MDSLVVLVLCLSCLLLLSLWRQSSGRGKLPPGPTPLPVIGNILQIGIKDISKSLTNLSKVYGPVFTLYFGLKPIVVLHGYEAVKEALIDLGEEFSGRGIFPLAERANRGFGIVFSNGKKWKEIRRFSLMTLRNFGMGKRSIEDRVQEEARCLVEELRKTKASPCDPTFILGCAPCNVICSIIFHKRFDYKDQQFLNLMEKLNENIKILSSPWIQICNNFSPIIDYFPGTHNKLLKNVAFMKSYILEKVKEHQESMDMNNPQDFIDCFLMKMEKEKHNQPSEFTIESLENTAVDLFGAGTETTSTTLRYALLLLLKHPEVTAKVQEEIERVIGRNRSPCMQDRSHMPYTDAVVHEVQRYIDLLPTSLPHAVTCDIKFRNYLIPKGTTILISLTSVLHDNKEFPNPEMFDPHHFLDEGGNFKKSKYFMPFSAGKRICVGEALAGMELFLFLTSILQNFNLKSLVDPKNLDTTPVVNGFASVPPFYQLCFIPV
Chain of 5HT2B serotonin receptor (P41595 whole entry): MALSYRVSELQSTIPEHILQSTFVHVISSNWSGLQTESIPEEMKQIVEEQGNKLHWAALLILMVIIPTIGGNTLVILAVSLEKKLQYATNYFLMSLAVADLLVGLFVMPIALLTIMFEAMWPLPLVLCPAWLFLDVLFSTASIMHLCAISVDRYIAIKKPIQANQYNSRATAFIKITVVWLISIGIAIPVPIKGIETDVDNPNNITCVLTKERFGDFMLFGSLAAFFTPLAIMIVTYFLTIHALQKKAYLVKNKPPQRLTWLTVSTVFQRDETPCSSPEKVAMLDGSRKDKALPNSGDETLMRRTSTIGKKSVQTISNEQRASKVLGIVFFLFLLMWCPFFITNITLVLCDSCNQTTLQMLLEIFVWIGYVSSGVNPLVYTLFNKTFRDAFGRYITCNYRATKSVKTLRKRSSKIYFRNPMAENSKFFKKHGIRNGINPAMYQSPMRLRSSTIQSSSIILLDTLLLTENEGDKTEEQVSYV
Chain of CYP2C19 (P33261 whole entry): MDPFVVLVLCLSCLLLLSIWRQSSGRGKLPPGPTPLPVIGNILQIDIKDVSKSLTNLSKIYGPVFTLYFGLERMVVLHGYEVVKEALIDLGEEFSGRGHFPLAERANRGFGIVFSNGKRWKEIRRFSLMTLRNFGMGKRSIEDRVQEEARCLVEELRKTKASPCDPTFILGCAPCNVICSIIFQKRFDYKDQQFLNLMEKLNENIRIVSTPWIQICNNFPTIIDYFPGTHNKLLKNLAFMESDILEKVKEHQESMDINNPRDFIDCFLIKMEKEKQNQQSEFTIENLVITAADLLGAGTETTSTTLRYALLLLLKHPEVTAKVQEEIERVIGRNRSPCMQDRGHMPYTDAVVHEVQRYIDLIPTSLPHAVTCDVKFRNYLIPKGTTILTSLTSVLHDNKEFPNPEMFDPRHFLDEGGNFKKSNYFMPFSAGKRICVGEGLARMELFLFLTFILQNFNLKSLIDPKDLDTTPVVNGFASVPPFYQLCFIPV
Chain of human 5HT1A serotonin receptor (P08908 whole entry): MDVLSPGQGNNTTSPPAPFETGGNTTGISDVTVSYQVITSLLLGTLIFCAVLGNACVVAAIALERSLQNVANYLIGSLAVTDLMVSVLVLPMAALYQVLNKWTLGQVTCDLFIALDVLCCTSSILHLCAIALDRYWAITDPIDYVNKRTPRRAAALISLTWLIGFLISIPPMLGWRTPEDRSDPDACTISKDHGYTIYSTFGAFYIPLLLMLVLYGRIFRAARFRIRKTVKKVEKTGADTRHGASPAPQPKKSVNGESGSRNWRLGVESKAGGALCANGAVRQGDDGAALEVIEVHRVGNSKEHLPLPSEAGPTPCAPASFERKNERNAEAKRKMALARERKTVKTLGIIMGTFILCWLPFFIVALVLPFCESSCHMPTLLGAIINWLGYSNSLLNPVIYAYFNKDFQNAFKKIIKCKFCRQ

## O[C@@H]1[C@H](O)[C@@H]2C[C@@H]2[C@H]1n1ccc2c(NCCc3ccccc3)nc(C#Cc3ccccc3)nc21 [compound 55, (1R,2R,3S,4R,5S)-4-(4-(Phenethylamino)-2-(phenylethynyl)-7H-pyrrolo[2,3-d]pyrimidin-7-yl)bicyclo[3.1.0]hexane-2,3-diol]
KOR [1]
  Ki: 1370 ± 180 nM
Muscarinic M1 receptor
  Ki: 6970 nM
5HT2B serotonin receptor
  Ki: 3060 ± 170 nM
Rat kidney TSPO
  Ki: 2120 ± 230 nM
hA3AR [2]
  Ki: 217 ± 65 nM
  reduction of hA3AR binding affinity by 7-deaza modification: 11 fold
DOR [3]
  Ki: 3660 ± 1330 nM
MOR [4]
  Ki: 4020 ± 890 nM
hA1AR
  Ki: 1300 nM

## CCOC(=O)[C@@]12C[C@@H]1[C@@H](n1ccc3c(NC)nc(C#Cc4ccc(Cl)s4)nc31)[C@H](O)[C@@H]2O [compound 28, Ethyl(1S,2R,3S,4R,5S)-4-(2-((5-chlorothiophen-2-yl)ethynyl)-4-(methylamino)-7H-pyrrolo[2,3-d]pyrimidin-7-yl)-2,3-dihydroxybicyclo[3.1.0]hexane-1-carboxylate]
KOR [1]; KOR binding
  ligand efficiency: 0.25
KOR [1]
  Ki: 42 ± 1 nM
KOR [1]; ratio of Ki
  preference for KOR in comparison to DOR: 19 fold
  preference for KOR in comparison to MOR: 15 fold
  preference for KOR in comparison to TSPO: ~20 fold
hA3AR [5]
  Emax at 10 µM: 0.59 ± 6.62%
KOR [6]
  KOR Antag (%): 99.6%
[7]; [18]
  MRT: 2.3 to 2.8 h
  half-life: 1.6 to 2.2 h
[7]; p.o. 1 mg/kg, 1 mg/kg
  oral bioavailability F: 58%
[7]; p.o. 10 mg/kg, 10 mg/kg
  oral bioavailability F: 60%
DOR [8]; vs naloxone 121 = 100% inhibition
  DOR Antag (%): 85.4%
DOR [8]; vs standard agonist = 100%
  DOR Ag (%): –0.6%
CYP1A2
  IC50: ≥ 10000 nM
hDAT [9]
  EC50: 2160 ± 550 nM
  hDAT [3H]119 binding, % control binding (maximal): 267 ± 17%
CYP2C9
  IC50: ≥ 10000 nM
Rat kidney TSPO
  Ki: 869 ± 160 nM
CACO-2 cell permeability
  Papp A→B at 120 min, 10 µM: 1.42 ×10⁻⁶ cm/s
CACO-2 cells
  Efflux Ratio: 15.6
hNET [10]
  EC50: > 10000 nM
hERG
  IC50: > 30000 nM
hSERT
  hSERT binding enhancement / serotonin uptake inhibition potency: > 10000 nM
hDAT [11]
  IC50: > 9800 nM
mA2AAR
  inhibition at 10 µM: 10%
hNOP
  Ki: 3710 ± 780 nM
Human plasma stability
  stability in human plasma, remaining: 98%
CYP2C19
  IC50: ≥ 10000 nM
hA3AR [2]
  Ki: 448 ± 13 nM
  reduction of hA3AR binding affinity by 7-deaza modification: 31 fold
DOR [3]
  Ki: 786 ± 210 nM
MOR [4]
  Ki: 637 ± 367 nM
KOR [12]
  βarrestin2 recruitment, Imax (% 120): 92 ± 1 % 120
CYP2D6
  IC50: ≥ 10000 nM
mA1AR
  inhibition at 10 µM: 32%
hDAT [13]
  EC50: > 1000 nM
  DAT, inhibition, % of control at 10 μM: –172 ± 57 (3) %
CYP3A4
  IC50: ≥ 10000 nM
MOR [14]; vs naloxone 121 = 100% inhibition, agonist 99 (300 nM)
  MOR Antag (%): 96.4%
MOR [14]; vs standard agonist = 100%
  MOR Ag (%): 0.4%

## CCNc1nc(C#Cc2ccccc2)nc2c1ncn2[C@H]1[C@H](O)[C@H](O)[C@@H]2C[C@@H]21 [compound 50]
hNET [15]
  Ki: 8660 nM
Rat kidney TSPO; Table 4
  TSPO, inhibition of radioligand binding at 10 μM (class): ^f (30–50% inhibition of radioligand binding at 10 μM)
DOR [3]; Table 4
  DOR, inhibition of radioligand binding at 10 μM (class): ^g (<30% inhibition of radioligand binding at 10 μM)
hDAT [13]
  DAT, inhibition, % of control at 10 μM: –154%

## CNC(=O)[C@@]12C[C@@H]1[C@@H](n1cnc3c(NC4CC4c4ccccc4)nc(C#Cc4ccccc4)nc31)[C@H](O)[C@@H]2O (mixture of isomers) [compound 10]
Rat kidney TSPO; Table 1
  TSPO, inhibition of radioligand binding at 10 μM (class): ^f (<30% inhibition of radioligand binding at 10 μM)
[16]
  Ki: 6300 nM
hDAT [17]
  Ki: 2310 nM
β3 adrenergic receptor
  Ki: 2500 nM
DOR [3]; Table 1
  DOR, inhibition of radioligand binding at 10 μM (class): ^e (30–50% inhibition of radioligand binding at 10 μM)
Rat σ2 receptor
  Ki: 2510 nM
